Reference: ChEMBL document CHEMBL5291721, “A preclinical secondary pharmacology resource illuminates target-adverse drug reaction associations of marketed drugs” (Nat Commun, 2023)

How the values were obtained:
[1] = target: T1, 5-hydroxytryptamine receptor 2C (Homo sapiens, UniProt P28335)
T1 sequence (P28335 whole entry): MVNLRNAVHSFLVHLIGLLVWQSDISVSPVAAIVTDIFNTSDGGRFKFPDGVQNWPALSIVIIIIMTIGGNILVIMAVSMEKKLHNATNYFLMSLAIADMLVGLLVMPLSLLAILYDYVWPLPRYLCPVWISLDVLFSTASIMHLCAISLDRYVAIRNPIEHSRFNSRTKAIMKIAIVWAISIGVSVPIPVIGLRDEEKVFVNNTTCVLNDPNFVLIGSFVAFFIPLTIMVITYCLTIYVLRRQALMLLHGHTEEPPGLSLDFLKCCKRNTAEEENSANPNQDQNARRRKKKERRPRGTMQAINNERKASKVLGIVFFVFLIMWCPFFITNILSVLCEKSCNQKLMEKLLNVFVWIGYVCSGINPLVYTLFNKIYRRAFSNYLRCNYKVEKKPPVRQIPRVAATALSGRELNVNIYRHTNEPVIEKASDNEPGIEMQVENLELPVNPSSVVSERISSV

[2] = target: T2, 5-hydroxytryptamine receptor 3A (Homo sapiens, UniProt P46098); type: functional
T2 sequence (P46098 whole entry): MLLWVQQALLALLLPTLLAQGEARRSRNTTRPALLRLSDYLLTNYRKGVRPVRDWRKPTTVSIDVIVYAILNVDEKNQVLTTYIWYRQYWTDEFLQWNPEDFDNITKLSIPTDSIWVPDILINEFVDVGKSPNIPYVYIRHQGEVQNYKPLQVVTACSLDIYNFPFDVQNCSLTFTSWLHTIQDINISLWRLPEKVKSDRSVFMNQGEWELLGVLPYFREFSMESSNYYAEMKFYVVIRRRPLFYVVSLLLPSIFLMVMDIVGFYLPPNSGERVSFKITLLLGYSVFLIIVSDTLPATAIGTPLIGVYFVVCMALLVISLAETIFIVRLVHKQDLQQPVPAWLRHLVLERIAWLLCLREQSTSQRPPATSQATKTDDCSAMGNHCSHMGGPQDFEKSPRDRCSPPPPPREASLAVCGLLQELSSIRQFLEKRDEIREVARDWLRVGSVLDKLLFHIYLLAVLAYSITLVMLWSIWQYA

[3] = target: T3, Muscarinic acetylcholine receptor M2 (Homo sapiens, UniProt P08172); type: functional, cell-based
T3 sequence (P08172 whole entry): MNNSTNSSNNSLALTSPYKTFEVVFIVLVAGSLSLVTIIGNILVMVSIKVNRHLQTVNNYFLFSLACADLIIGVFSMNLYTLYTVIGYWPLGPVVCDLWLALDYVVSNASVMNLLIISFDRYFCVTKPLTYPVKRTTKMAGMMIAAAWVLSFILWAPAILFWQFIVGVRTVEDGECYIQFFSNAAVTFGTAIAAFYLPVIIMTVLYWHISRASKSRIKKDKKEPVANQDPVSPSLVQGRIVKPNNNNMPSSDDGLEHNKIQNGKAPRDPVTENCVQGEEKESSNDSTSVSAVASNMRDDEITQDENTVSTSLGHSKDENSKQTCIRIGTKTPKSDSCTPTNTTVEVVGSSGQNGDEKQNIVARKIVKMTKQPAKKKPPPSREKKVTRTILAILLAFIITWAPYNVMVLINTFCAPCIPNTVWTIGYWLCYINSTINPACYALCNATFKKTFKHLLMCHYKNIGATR

[4] = target: T4, Neuropeptide Y receptor type 1 (Homo sapiens, UniProt P25929)
T4 sequence (P25929 whole entry): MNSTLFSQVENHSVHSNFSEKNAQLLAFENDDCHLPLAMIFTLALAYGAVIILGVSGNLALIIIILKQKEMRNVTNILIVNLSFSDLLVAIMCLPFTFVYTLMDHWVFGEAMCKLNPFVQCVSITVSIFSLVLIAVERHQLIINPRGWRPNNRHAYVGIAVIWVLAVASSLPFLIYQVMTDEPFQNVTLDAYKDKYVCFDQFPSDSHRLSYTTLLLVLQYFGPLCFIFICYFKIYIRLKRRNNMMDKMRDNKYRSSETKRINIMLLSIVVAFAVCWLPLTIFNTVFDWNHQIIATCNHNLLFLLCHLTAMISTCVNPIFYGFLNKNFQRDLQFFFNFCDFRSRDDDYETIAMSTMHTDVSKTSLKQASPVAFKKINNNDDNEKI

[5] = target: T5, Prostaglandin G/H synthase 1 (Rattus norvegicus, UniProt Q63921); type: functional
T5 sequence (Q63921 whole entry): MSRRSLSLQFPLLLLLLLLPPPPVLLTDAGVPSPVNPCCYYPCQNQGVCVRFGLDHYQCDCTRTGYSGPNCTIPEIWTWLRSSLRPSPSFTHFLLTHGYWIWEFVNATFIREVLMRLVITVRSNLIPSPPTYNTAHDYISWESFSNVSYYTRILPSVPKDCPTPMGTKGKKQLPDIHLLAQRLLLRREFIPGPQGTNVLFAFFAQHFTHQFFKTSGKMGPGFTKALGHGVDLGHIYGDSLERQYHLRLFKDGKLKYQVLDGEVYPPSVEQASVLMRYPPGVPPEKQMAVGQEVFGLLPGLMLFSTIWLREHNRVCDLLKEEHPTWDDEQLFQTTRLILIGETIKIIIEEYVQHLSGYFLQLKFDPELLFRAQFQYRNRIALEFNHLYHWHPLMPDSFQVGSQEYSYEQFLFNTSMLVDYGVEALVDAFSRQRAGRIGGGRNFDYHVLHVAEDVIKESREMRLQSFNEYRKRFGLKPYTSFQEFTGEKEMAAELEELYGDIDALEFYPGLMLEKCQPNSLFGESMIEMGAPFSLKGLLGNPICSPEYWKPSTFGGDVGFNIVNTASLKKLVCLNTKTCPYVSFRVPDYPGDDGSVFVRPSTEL
Also: assay procedure not described here.

| Structure (SMILES) | AC50 [1] [µM] | AC50 [2] [µM] | AC50 [3] [µM] | AC50 [4] [µM] | AC50 [5] [µM] |
| --- | --- | --- | --- | --- | --- |
| Cn1c(=O)c2c(ncn2CCOC(=O)C(C)(C)Oc2ccc(Cl)cc2)n(C)c1=O [THEOFIBRATE] | > 30 | > 30 | > 30 | > 30 | > 30 |
| COc1cc(C(=O)NC2CCCNC2)cc(OC)c1OC (stereo not given) [TROXIPIDE] | > 30 | > 30 | > 30 | > 30 | > 10 |
| CC(C)(C)NCC(O)c1ccccc1Cl (stereo not given) [TULOBUTEROL] | > 30 | > 30 | > 30 | > 30 | > 30 |
| CC(C(=O)O)c1ccc2c(c1)CC(=O)c1ccccc1S2 (stereo not given) [ZALTOPROFEN] | > 30 | > 30 | > 30 | > 30 | > 30 |
| CC(c1cc2ccccc2s1)N(O)C(N)=O (stereo not given) [ZILEUTON] | > 30 | > 30 | > 10 | > 10 | > 30 |
